US6750234B2, “Methods for increasing leptin levels using nicotinic acid compounds” (University of Kentucky Research Foundation, priority 2001, dated 2004)
Read-outs that look alike come from different tables or passages of the source.

How the values were obtained:
[1] = test system: leptin; details: female apoB/CETP mice
Experimental: Leptin levels in plasma were determined using a commercially available murine leptin radioimmunoassay. The RIA was carried out on fasting (16 h) blood samples obtained from the retroorbital plexus. The blood samples were collected and centrifuged at 2000×g for 15 minutes to secure plasma.

[2] = test system: Human adipocytes; details: 0.1 mM niacin, 24 hours, vs cultures without niacin
Experimental: Human adipocytes were obtained in accordance with standard methods. In brief, preadipocytes were collected from subcutaneous adipose tissue, following collagenase treatment. The preadipocytes were plated, and allowed to differentiate for 3 weeks, to form adipocytes.
The adipocytes were then incubated, in 0.6 ml of DMEM/F-10 medium, to which 2% bovine serum albumin was added.
After 24 hours, the culture medium was analyzed for leptin, using a commercially available ELISA kit.

[3] = test system: leptin; details: male BALB/C mice, 4 ml/kg/mouse, vs vehicle
Experimental: The experiments described in example 2 were continued, in the experiment described in this example. Specifically, male BALB/C mice were shaved, from the scapulae to tail bases. The subject animals then received topical application of the lauryl nicotinate ester lotion, described in example 2, supra, or myristyl nicotinate ester lotion, in varying concentrations. Controls received vehicle only. The lotion was applied at a dose of 4 ml/kg/mouse.
Serum leptin levels were measured, as described, supra.

[4] = test system: full thickness wounds; details: mice, about 6 mm full thickness wounds, topical 20% lotion, 100 μl twice every day for 14 days, vs lotion without ester
Experimental: Mice were inflicted with full thickness wounds of about 6 mm in diameter, under anesthesia (sodium phenobarbital). They then received topical application of a 20% nicotinate ester lotion, every day, for 14 days. The dosing was 100 μl for each application, with two applications every day. As a control, the lotion without the ester was used. Wound diameter was measured every day.

[5] = test system: leptin; details: transgenic mice; cited from earlier work

In the case of `O=C(O)c1cccnc1` [niacin, reference compound], the “amount of circulating leptin (plasma)” value ([1]; oral, sodium salt 0.75% in drinking water, approx. 1400 mg/kg, fasting (16 h) blood) was “did increase the amount of circulating leptin” and the “increase in leptin production” value [2] was 62%.

In the case of `CCCCCCCCCCCCOC(=O)c1cccnc1` [lauryl nicotinate ester], the “amount of circulating leptin (plasma)” value ([1]; topical, 200 mg of 10% (wt/wt) lotion daily for 13 weeks, compared with oral niacin) was “surpassed it in terms of the amount of circulating leptin”, the “increase in serum leptin levels” value ([3]; topical 10% lotion) was 45% and the “reduction of wound thickness” value [4] was 43%.

In the case of `Cc1cnc(C(=O)O)c[n+]1[O-]` [Acipimox], the plasma leptin levels [5] is given as “increase plasma leptin levels”.

For `CCCCCCCCCCCCCCOC(=O)c1cccnc1` [myristyl nicotinate ester], the “increase in serum leptin levels” value ([3]; topical 2% formulation) was 57% and the “increase in serum leptin levels” value ([3]; topical 5% formulation) was 77%.
